This is an account of results in patent publication US9408908B2, “Combination adjuvant formulation” (University of Saskatchewan, priority 2008, dated 2016).

Entries after “also recorded” stand apart in the source; their conditions may differ. No end group written: not given here.

One series relates to ΔF from BRSV. As to the kind of experiment: Immunization of mice with BRSV ΔF protein co-formulated with CpG ODN 1826, indolicidin and/or polyphosphazene. To be noted: overall conclusion. Format: in vivo, C57BL/6 and Balb/c mice. The procedure: Six- to eight-week-old female C57BL/6 mice (Charles River, Montreal, Quebec) were immunized twice subcutaneously at 3 week intervals with 100 μL of vaccine containing 0.5 μg ΔF from BRSV (a truncated form of the BRSV F protein engineered to lack the transmembrane domain (aa1-522 only), either alone, or co-formulated with CpG oligonucleotide 1826 (CpG ODN), indolicidin (indol), and/or polyphosphazene (PP). CpG ODN, indolicidin and polyphosphazene were given at doses of 10 μg, 20 μg, and 50 μg, respectively. Negative control animals were immunized with buffer (placebo). CpG ODN 1826 ([…]) (SEQ ID NO:8) was provided by Merial (Lyon, France), and contained a phosphorothioate-modified backbone. […]
Statistical analysis was carried out using GraphPad Prism version 5.00 for Windows (GraphPad Software, San Diego, Calif.). Differences between groups were determined using a Mann-Whitney U test.
CpG ODN 1826, indolicidin, and polyphosphazene were examined for their ability to enhance antigen-specific immune responses when administered with the ΔF protein, either alone, or co-formulated with CpG, indolicidin, and/or PP. […] Mice were immunized twice subcutaneously, and serum total anti-ΔF IgG titers were measured after each immunization by ELISA. […]

Series [1] has as its system human cord blood mononuclear cells. As to the kind of experiment: Peptide activity in human cord blood mononuclear cells. The format is cell-based.
Procedure: (§1) These peptides were tested for induction of chemokines and cytokines in human PBMCs. Human PBMCs stimulated with 20 and 100 μg/ml of host defense peptides were assessed for various cytokines and chemokines at the 24 hour time-point by ELISA (eBiosciences). […] Subsequently, selected host defense peptides were examined for protective activity in vivo. Briefly, BALB/c mice were administered peptides (8 mg/kg) by i.p. administration 4 h prior to infection. Mice were infected with 8.4×10^7 S. aureus in 5% mucin by i.p. administration. Bacterial counts in the peritoneal lavage were determined in 24 h after the initiation of infection.
Series [2] deals with human PBMC. As to the kind of experiment: Chemokine induction by host defense peptides in human PBMC (ELISA). The format is cell-based. (In general: An ELISA detects its analyte on a solid surface through an enzyme-linked reagent.)
Procedure: as §1
In the next series the test system is S. aureus. As to the kind of experiment: Protection against S. aureus infection in mice. The settings on record: 8 mg/kg i.p. 4 h prior to infection; bacterial counts in peritoneal lavage at 24 h. The format is in vivo, BALB/c mice.
Series [3] concerns human PBMC. The experiment in a line: MCP-1 induction by triple adjuvant formulations (peptide, CpG 10103, PCPP) in human PBMC. The format is cell-based. To be noted: 24 hours, peptide 40 μg/ml, CpG 20 μg/ml, no PCPP, average of 4 biological replicates. As for the experimental part: The effect of PCPP addition on chemokine induction by peptide-CpG 10103 complexes was assessed by the induction of MCP-1 in human PBMCs. Briefly, peptide-CpG complexes were formed as previously described and following incubation PCPP, with or without MgCl2 (pH 7.4), was added to the peptide-CpG complexes at various concentrations and incubated for 30 min at 37° C. Following incubation, human PBMCs were stimulated with the various formulations for 24 hours and levels of MCP-1 were measured by ELISA.

Series [4] concerns human PBMCs and human red blood cells. The experiment in a line: Cytotoxicity: LDH release in human PBMCs and haemolysis of human red blood cells.
The nature of series [5]: Cytokine production by indolicidin with CpG ODN (unpublished results). From the text: The combination of indolicidin, however, along with CpG ODN and polyphosphazene enhanced ΔF-specific humoral and cellular immune responses, and generated a Th1 response. […] The combination of all three adjuvants was required for optimal enhancement of the immune response, as well as to shift the resulting anti-ΔF immune response from Th2 to Th1. However the mechanisms of this immune enhancement are unclear. Without being bound by a particular theory, the enhanced immunogenicity and Th1-biasing effect of the combination with all three adjuvants with ΔF could be as a result of the stabilization and prolonged effect of CpG ODN and/or ΔF, and an increased uptake of CpG ODN and ΔF into antigen-presenting cells.

A short description of series [6]: Effect of indolicidin dose on adjuvant activity with CpG ODN 1826 (unpublished results). The format is in vivo. To be noted: 20 μg of peptide co-administered with CpG ODN 1826. The text has this:
Adjuvant doses were selected based on previous reports of adjuvanticity of the individual components.

A further series deals with human PBMCs. The experiment in a line: MCP-1 induction by nucleic acid-peptide formulations in human PBMCs. The format is cell-based. The settings on record: human PBMCs 24 hours; coupled with peptide 1002 or 1018; four biological replicates. As for the experimental part:
Chemokine induction by nucleic acid-peptide formulations Direct complex formation between the various nucleic acids and synthetic host defense peptides was verified prior to human PBMC stimulations. For determination of the immunostimulatory activities of various nucleic acids in complex with host defense peptides in vitro, the following experiment was conducted. Various combinations of CpG ODN 10103, non-CpG ODN 5′[…]3′ (SEQ ID NO:13), poly(I:C) and the synthetic host defense peptides 1002 and 1018 were examined for chemokine induction. Briefly, nucleic acids and peptide were co-incubated for 30 min at 37° C. prior to cell stimulations. Human PBMCs were stimulated with the various formulations for 24 hours and levels of MCP-1 were measured by ELISA. Optimal ratios 2:1, 1:1 and 1:2 nucleic acid:host defense peptide (μg/ml:μg/ml) were identified between concentration thresholds of 40 μg/ml and 10 μg/ml. The results were from four biological replicates.

The mark [7] stands for this setting: human PBMC, peptide concentration 20 μg/ml.
Setting [8] is: human PBMC, peptide concentration 20 μg/ml, 24 hour, ELISA.
Where [9] appears, read: human PBMC, peptide concentration 100 μg/ml.
The mark [10] stands for this setting: human PBMC, peptide concentration 100 μg/ml, 24 hour, ELISA.
Setting [11] is: Table 2, JK peptides, human PBMCs, peptide concentration 20 μg/ml.
Where [12] appears, read: Table 2, JK peptides, human PBMCs, peptide concentration 100 μg/ml.
Setting [13] is: Table 3, indolicidin derivatives, human PBMCs, peptide concentration 20 (unit not given).
Where [14] appears, read: Table 3, indolicidin derivatives, human PBMCs, peptide concentration 100 (unit not given).

Procedure for S. aureus: as §1

CpG ODN 1826: the “type and enhancement of ΔF-specific immune response” value in the series with ΔF from BRSV was “shift towards a Th1 or balanced immune response”.

On to “HH18: host defense peptide IWVIWRR (SEQ ID NO:21) (HH18)”, for which the “activity in human cord blood mononuclear cells” value in series [1] is recorded as “further confirmed”. For the same substance, the results for the “Chemokine Induction Gro-α” value in the series with human PBMC [2] (setting [7]) and in the series on human PBMC [2] (setting [9]) were 865 pg/mL and 2964 pg/mL, respectively. Moreover, the “Chemokine Induction MCP-3” value with human PBMC [2] (setting [7]) is 32 pg/mL; in the series on human PBMC [2] (setting [9]), 431 pg/mL. The “Chemokine Induction MCP-1” value in the series with human PBMC [2] (setting [8]) was determined as 1111 pg/mL; with human PBMC [2] (setting [10]), 9608 pg/mL. Moreover, in the series on human PBMC [2] (panel of 20 HH-class peptides, 20 and 100 μg/ml, 24 hour), the “induction of chemokines and cytokines in human PBMCs (ranking in panel)” value was “most active peptides”.

Regarding “JK1: peptide VFLRRIRVIVIR (SEQ ID NO:2) (JK1)”, in the series with human PBMC [2] (setting [11]), the “Chemokine Induction Gro-α” value was 377 pg/mL and the “Chemokine Induction MCP-1” value amounted to 663 pg/mL. In the series with human PBMC [2] (setting [12]), the “Chemokine Induction Gro-α” value is 105 pg/mL and the “Chemokine Induction MCP-1” value is 1226 pg/mL.

As for “JK3: peptide VQLRAIRVRVIR (SEQ ID NO:4) (JK3)”, in the series on human PBMC [2] (setting [11]), the “Chemokine Induction Gro-α” value turned out to be 430 pg/mL and the “Chemokine Induction MCP-1” value was determined as 873 pg/mL. Besides, in the series with human PBMC [2] (setting [12]), the “Chemokine Induction Gro-α” value worked out at 320 pg/mL and the “Chemokine Induction MCP-1” value turned out to be 747 pg/mL.

Regarding “JK4: peptide VQLRRIRVWVIR (SEQ ID NO:5) (JK4)”, in the series with human PBMC [2] (setting [11]), the “Chemokine Induction Gro-α” value is 245 pg/mL and the “Chemokine Induction MCP-1” value came out at 655 pg/mL. Besides, in the series on human PBMC [2] (setting [12]), the “Chemokine Induction Gro-α” value was determined as 80 pg/mL and the “Chemokine Induction MCP-1” value amounted to 557 pg/mL.

Regarding “JK5: peptide VQWRAIRVRVIR (SEQ ID NO:6) (JK5)”, in the series on human PBMC [2] (setting [11]), the “Chemokine Induction Gro-α” value is 317 pg/mL and the “Chemokine Induction MCP-1” value is 673 pg/mL. Further, in the series on human PBMC [2] (setting [12]), the “Chemokine Induction Gro-α” value amounted to 123 pg/mL and the “Chemokine Induction MCP-1” value was 529 pg/mL.

For the substance “JK6: peptide VQWRRIRVWVIR (SEQ ID NO:7) (JK6)”, the “Chemokine Induction Gro-α” value is 254 pg/mL in the series on human PBMC [2] (setting [11]) and 68 pg/mL in the series on human PBMC [2] (setting [12]). The entries for the “Chemokine Induction MCP-1” value in the series with human PBMC [2] (setting [11]) and in the series with human PBMC [2] (setting [12]) were 721 pg/mL and 671 pg/mL, respectively.

For Nisin Z [reference compound], the “Chemokine Induction Gro-α” value in the series with human PBMC [2] (setting [7]) is 62 pg/mL; in the series with human PBMC [2] (setting [9]), 5811 pg/mL. Further, the “Chemokine Induction MCP-1” value was 434 pg/mL in the series on human PBMC [2] (setting [8]) and 7329 pg/mL with human PBMC [2] (setting [10]). In the series with S. aureus, the “protection in animal challenges against S. aureus” value is reported as “offered protection”. Further, the “MCP-1 Induction” value with human PBMC [3] is 47 pg/mL.

Turning to VQRWLIVWRIRK [Peptide 1002], the “cytotoxicity (LDH release in human PBMCs, haemolysis of human red blood cells)” value in [4] was “minimal cytotoxicity”.

As for VRLIVAVRIWRR-NH2 [Peptide 1018], in [4], the “cytotoxicity (LDH release in human PBMCs, haemolysis of human red blood cells)” value is “minimal cytotoxicity”.

Take indolicidin [reference compound]: the “production of Th1 cytokines IL-12 and IFN-γ and chemotactic factor MCP-1” value in series [5] was “acts synergistically with CpG ODN”. For the same substance, the “type and enhancement of ΔF-specific immune response” value in the series with ΔF from BRSV is on record as “sustain the type-2 immune response; also recorded: did not appear to be an effective adjuvant”. In the series on human PBMC [2] (setting [13]), the “Chemokine Induction Gro-α” value was 84 pg/mL and the “Chemokine Induction MCP-1” value was determined as 245 pg/mL. Besides, in the series on human PBMC [2] (setting [14]), the “Chemokine Induction Gro-α” value turned out to be 846 pg/mL and the “Chemokine Induction MCP-1” value turned out to be 3120 pg/mL. Also, the “adjuvant activity and class switching to IgG2a by dose” value in [6] is “enhanced antigen-specific immune responses and effected class switching to IgG2a better than when the peptide was administered at a 10-fold higher dose”.

“polyriboinosinic acid-polyribocytidylic acid [poly(I:C)]”: the “induction of MCP-1 versus individual components” value in the series with human PBMCs is “synergistic induction of MCP-1”.
